Results: patent US5143918A, “Halomacrolides and derivatives having immunosuppressive activity” (Merck & Co., Inc., priority 1991, dated 1992)
Where two headings read alike, the source gives them in different places.

Assays:
[1] = test system: T lymphocytes (T-cells); experiment: T-Cell Proliferation Assay (tritiated thymidine uptake); type: cell-based, C57B1/6 mice; details: mouse spleen T lymphocytes, ionomycin 250 ng/ml and PMA 10 ng/ml, 44 h culture + 4 h tritiated thymidine, read-out: IC50 (concentration of compound required to inhibit tritiated thymidine uptake / proliferation of T-cells by 50%)
Experimental: T-Cell Proliferation Assay
The compounds to be assayed were dissolved in absolute ethanol at 1 mg/ml.
Spleens from C57B1/6 mice were taken under sterile conditions and gently dissociated in ice-cold RPMI 1640 culture medium (GIBC), Grand Island, N.Y.) supplemented with 10% heat-inactivated fetal calf serum (GIBO)). Cells were pelleted by centrifugation at 1500 rpm for 8 minutes. Contaminating red cells were removed by treating the pellet with ammonium chloride lysing buffer (GIBO)) for 2 minutes at 4° C. Cold medium was added and cells were again centrifuged at 1500 rpm for 8 minutes. T lymphocytes were then isolated by separation of the cell suspension on nylon wool columns as follows: Nylon wool columns were prepared by packing approximately 4 grams of washed and dried nylon wool into 20 ml plastic syringes. The columns were sterilized by autoclaving at […]. for 30 minutes. Nylon wool columns were wetted with warm (37° C.) culture medium and rinsed with the same medium. Washed spleen cells resuspened in warm medium were slowly applied to the nylon wool. The columns were then incubated in an upright position at 37° C. for 1 hour. Non-adherent T lymphocytes were eluted from the columns with warm culture medium and the cell suspensions were spun as above.
Purified T lymphocytes were resuspended at 2.5×10^5 cells/ml in complete culture medium composed of RPMI 1640 medium with 10% heat-inactivated fetal calf serum, […], 1 mM sodium pyruvate, 2×10^-5 M 2-mercaptoethanol and 50 μg/ml gentamycin. Ionomycin was added at 250 ng/ml and PMA at 10 ng/ml. The cell suspension was immediately distributed into 96 well flat-bottom microculture plates (Costar) at 200 μl/well. The various dilutions of the compound to be tested were then added in triplicate wells at 20 ul/well. The compound 17-allyl-1,14-dihydroxy-12-[2'-(4"-hydroxy-3"-methoxycyclohexyl)-1'-methylvinyl]-23,25-dimethoxy-13,19,21,27-tetramethyl-11,28-dioxa-4-azatricyclo[22.3.1.0^4,9 ]octacos-18-ene-2,3,10,16-tetraone was used as a standard. The culture plates were then incubated at 37° C. in a humidified atmosphere of 5% CO2 -95% air for 44 hours. The proliferation of T lymphocytes was assessed by measurement of tritiated thymidine incorporation. After 44 hours of culturing, the cells were pulse-labelled with 2 μCi/well of tritiated thymidine (NEN, Cambridge, Mass.). After another 4 hours of incubation, cultures were harvested on glass fiber filters using a multiple sample harvester. Radio activity of filter discs corresponding to individual wells was measured by standard liquid scintillation counting methods (Betacounter). Mean counts per minute of replicate wells were calculated and the results expressed as concentration of compound required to inhibit tritiated thymidine uptake of T-cells by 50%.
A selection of compounds were tested according to the previous procedure. The concentration of compound required to inhibit the proliferation of T-cells by 50% was measured, and the results were as follows: […]

[2] = test system: in vitro immune systems; details: versus cyclosporin; J. Antibiotics 1987, 40, 1256; cited from earlier work

Compound: CCC1C=C(C)CC(C)CC(OC)C2OC(O)(C(=O)C(=O)N3CCCCC3C(=O)OC(C(C)=CC3CCC(F)C(OC)C3)C(C)C(O)CC1=O)C(C)CC2OC (centres unmarked) [Example 62, 17-Ethyl-1,14-dihydroxy-12-[2'-(4"-fluoro-3"-methoxycyclohexyl)-1'-methylvinyl]-23,25-dimethoxy-13,19,21,27-tetramethyl-11,28-dioxa-4-azatricyclo-[22.3.1.0^4,9]octacos-18-ene-2,3,10,16-tetraone]
- IC50 ([1]; T-cell): < 1 µM

Compound: CCC1C=C(C)CC(C)CC(OC)C2OC(O)(C(=O)C(=O)N3CCCCC3C(=O)OC(C(C)=CC3CCC(O)C(Br)C3)C(C)CCC1=O)C(C)CC2OC (centres unmarked) [Example 89, 17-Ethyl-1-hydroxy-12-[2'-(3"-bromo-4"-hydroxycyclohexyl)-1'-methylvinyl]-23,25-dimethoxy-13,19,21,27-tetramethyl-11,28-dioxa-4-azatricyclo[22.3.1.0^4,9]octacos-18-ene-2,3,10,16-tetraone]
- IC50 ([1]; T-cell): < 1 µM

Compound: 17-Ethyl-1-hydroxy-12-[2'-(3"-chloro-4"-hydroxycyclohexyl)-1'-methylvinyl]- 23,25-dimethoxy-13,19,21,27-tetramethyl-11,28-dioxa-4-azatricyclo[22.3.1.0^4,9 ]octacos-18-ene-2,3,10,16-tetraone [Example 87]
- IC50 [1]: < 1 µM

Compound: CCC1C=C(C)CC(C)CC(OC)C2OC(O)(C(=O)C(=O)N3CCCCC3C(=O)OC(C(C)=CC3CCC(Cl)C(OC)C3)C(C)C(O)CC1=O)C(C)CC2OC (stereo not drawn) [Example 53, 17-Ethyl-1,14-dihydroxy-12-[2'-(4"-beta-chloro-3"-methoxycyclohexyl)-1'-methylvinyl]-23,25-dimethoxy-13,19,21,27-tetramethyl-11,28-dioxa-4-azatricyclo[22.3.1.0^4,9]octacos-18-ene-2,3,10,16-tetraone]
- IC50 ([1]; T-cell): < 1 µM

Compound: CCC1C=C(C)CC(C)CC(OC)C2OC(O)(C(=O)C(=O)N3CCCCC3C(=O)OC(C(C)=CC3CCC(Br)C(OC)C3)C(C)C(O)CC1=O)C(C)CC2OC (stereo not drawn) [Example 56, 17-Ethyl-1,14-dihydroxy-12-[2'-(4"-beta-bromo-3"-methoxycyclohexyl)-1'-methylvinyl]-23,25-dimethoxy-13,19,21,27-tetramethyl-11,28-dioxa-4-azatricyclo[22.3.1.0^4,9]octacos-18-ene-2,3,10,16-tetraone]
- IC50 ([1]; T-cell): < 1 µM

Compound: CCC1C=C(C)CC(C)CC(OC)C2OC(O)(C(=O)C(=O)N3CCCCC3C(=O)OC(C(C)=CC3CCC(Cl)C(OC)C3)C(C)CCC1=O)C(C)CC2OC (stereo not drawn) [Example 40, 17-Ethyl-1-hydroxy-12-[2'-(4"-beta-chloro-3"-methoxycyclohexyl)-1'-methylvinyl]-23,25-dimethoxy-13,19,21,27-tetramethyl-11,28-dioxa-4-azatricyclo-[22.3.1.0^4,9]octacos-18-ene-2,3,10,16-tetraone]
- IC50 ([1]; T-cell): < 1 µM

Compound: C=CCC1C=C(C)CC(C)CC(OC)C2OC(O)(C(=O)C(=O)N3CCCCC3C(=O)OC(C(C)=CC3CCC(O)C(OC)C3)C(C)C(O)CC1=O)C(C)CC2OC (centres unmarked) [FR-900506, 17-allyl-1,14-dihydroxy-12-[2'-(4"-hydroxy-3"-methoxycyclohexyl)-1'-methylvinyl]-23,25-dimethoxy-13,19,21,27-tetramethyl-11,28-dioxa-4-azatricyclo-[22.3.1.0^4,9]octacos-18-ene-2,3,10,16-tetraone]
- times more effective than cyclosporin in the suppression of in vitro immune systems [2]: 100 times

Compound: CCC1C=C(C)CC(C)CC(OC)C2OC(O)(C(=O)C(=O)N3CCCCC3C(=O)OC(C(C)=CC3CCC(I)C(OC)C3)C(C)C(O)CC1=O)C(C)CC2OC (stereo not drawn) [Example 59, 17-Ethyl-1,14-dihydroxy-12-[2'-(4"-beta-iodo-3"-methoxycyclohexyl)-1'-methylvinyl]-23,25-dimethoxy-13,19,21,27-tetramethyl-11,28-dioxa-4-azatricyclo-[22.3.1.0^4,9]octacos-18-ene-2,3,10,16-tetraone]
- IC50 [1]: < 1 µM
